In patent US8183216B2, “Nucleoside derivatives as inhibitors of viral polymerases” (Istituto Di Ricerche Di Biologia Molecolare P. Angeletti …, priority 2007, dated 2012):

These molecules were tested on HuH-7 cells containing a subgenomic HCV Replicon (assay: Assay for inhibition of HCV RNA replication (subgenomic replicon, in situ RNase protection SPA)). Conditions: Hepatitis C virus; HCV replication assay in HuH-7 replicon cells, activity ranges.
Format: cell-based
Protocol: B. Assay for Inhibition of HCV RNA Replication:
The compounds of the present invention were also evaluated for their ability to affect the replication of Hepatitis C Virus RNA in cultured hepatoma (HuH-7) cells containing a subgenomic HCV Replicon. The details of the assay are described below. This Replicon assay is a modification of that described in V. Lohmann, F. Korner, J-O. Koch, U. Herian, L. Theilmann, and R. Bartenschlager, “Replication of a Sub-genomic Hepatitis C Virus RNAs in a Hepatoma Cell Line,” Science 285:110 (1999).
The assay was an in situ Ribonuclease protection, Scintillation Proximity based-plate assay (SPA). 10,000-40,000 cells were plated in 100-200 μL of media containing 0.8 mg/mL G418 in 96-well cytostar plates (Amersham). Compounds were added to cells at various concentrations up to 100 μM in 1% DMSO at time 0 to 18 h and then cultured for 24-96 h. Cells were fixed (20 min, 10% formalin), permeabilized (20 min, 0.25% Triton X-100/PBS) and hybridized (overnight, 50° C.) with a single-stranded ^33P RNA probe complementary to the (+) strand NS5B (or other genes) contained in the RNA viral genome. Cells were washed, treated with RNAse, washed, heated to 65° C. and counted in a Top-Count Inhibition of replication was read as a decrease in counts per minute (cpm).
Human HuH-7 hepatoma cells, which were selected to contain a subgenomic replicon, carry a cytoplasmic RNA consisting of an HCV 5′ non-translated region (NTR), a neomycin selectable marker, an EMCV IRES (internal ribosome entry site), and HCV non-structural proteins NS3 through NS5B, followed by the 3′ NTR.
Representative compounds were tested in the HCV replication assay and results are reported as EC50 activity ranges in Table C

Structure (SMILES) | EC50
C[C@@]1(O)[C@H](O)[C@@H](CO)O[C@H]1n1cc2c3c(ncnc31)NCc1ccccc1-2 [Compound 2, 2-(2-C-methyl-beta-D-ribofuranosyl)-6,7-dihydro-2H-2,3,5,6-tetraazadibenzo[cd,h]azulene] | 30 to 50 µM
CC1(O)C(n2cc3c4c(ncnc42)NC(=O)c2sccc2-3)O[C@H](CO)[C@H]1O (single isomer, unassigned) [Compound 3, 2-(2-C-methyl-beta-D-ribofuranosyl)-2,6-dihydro-7H-8-thia-2,3,5,6-tetraazabenzo[CD]cyclopenta[H]azulen-7-one] | < 30 µM
CC1(O)C(n2cc3c4c(ncnc42)NCc2sccc2-3)O[C@H](CO)[C@H]1O (single isomer, unassigned) [Compound 4, 2-(2-C-methyl-beta-D-ribofuranosyl)-6,7-dihydro-2H-8-thia-2,3,5,6-tetraazabenzo[CD]cyclopenta[H]azulene] | < 30 µM
C[C@@]1(O)[C@H](O)[C@@H](CO)O[C@H]1n1cc2c3c(ncnc31)NC(=O)c1ccccc1-2 [Compound 1, 2-(2-C-methyl-beta-D-ribofuranosyl)-2,6-dihydro-7H-2,3,5,6-tetraazadibenzo[C,D,H]azulen-7-one] | < 30 µM

These molecules were tested against T1, HCV NS5B RNA-dependent RNA polymerase (Hepatitis C virus genotype 1b, UniProt P26663) (assay: Assay for inhibition of HCV NS5B polymerase (heteromeric RNA template, 3H-UTP incorporation)). Conditions: activity ranges.
T1 construct: RNA-dependent RNA polymerase (NS5B) of the hepatitis C virus (HCV)
T1 sequence (P26663 2420-2955): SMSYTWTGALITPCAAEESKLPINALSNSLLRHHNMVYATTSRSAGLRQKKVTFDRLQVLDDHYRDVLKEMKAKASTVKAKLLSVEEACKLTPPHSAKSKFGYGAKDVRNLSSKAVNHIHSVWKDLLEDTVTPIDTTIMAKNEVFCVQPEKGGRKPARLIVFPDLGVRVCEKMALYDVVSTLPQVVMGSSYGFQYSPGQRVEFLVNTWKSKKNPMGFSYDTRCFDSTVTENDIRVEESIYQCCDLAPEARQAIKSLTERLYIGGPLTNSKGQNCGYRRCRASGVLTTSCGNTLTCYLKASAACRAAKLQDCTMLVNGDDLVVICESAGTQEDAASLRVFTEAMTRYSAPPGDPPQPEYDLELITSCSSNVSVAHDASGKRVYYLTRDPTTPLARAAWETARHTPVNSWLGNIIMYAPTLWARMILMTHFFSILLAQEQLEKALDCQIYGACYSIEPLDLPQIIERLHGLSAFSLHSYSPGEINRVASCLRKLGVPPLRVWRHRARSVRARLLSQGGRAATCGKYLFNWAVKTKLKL
Format: biochemical
Protocol: The effectiveness of the compounds of the present invention as inhibitors of HCV NS5B RNA-dependent RNA polymerase (RdRp) was measured in the following assay.
A. Assay for Inhibition of HCV NS5B Polymerase:
This assay was used to measure the ability of the nucleoside derivatives of the present invention to inhibit the enzymatic activity of the RNA-dependent RNA polymerase (NS5B) of the hepatitis C virus (HCV) on a heteromeric RNA template.
Assay Buffer Conditions: (52.5 μL-total/reaction) • 20 mM Tris, pH 7.5 • 45 mM KCl • 2 mM MgCl2 • 0.01% Triton X-100 • 1 μg BSA, DNase Free • 1 mM DTT • 2 nM DC55-1b.BK or 10 nM DC55-2b.2 • 20 nM heterogeneous template dCoh • UTP 1 uM • ATP 1 uM • CTP 1 uM • GTP 1 uM • 3H-UTP 1,000,000 cpm • 2.5 μl reaction inhibitor compound in H2O
The compounds were tested at various concentrations up to 100 μM final concentration. Nucleoside derivatives were pipetted into wells of a 96-well plate. The enzyme diluted in the reaction buffer was pipetted into the wells and incubated at room temperature for 10 minutes; then the template dCoh was added and incubated for 10 minutes at room temperature. The reaction was initiated by addition of a mixture of nucleotide triphosphates (NTP's), including the radiolabeled UTP, and allowed to proceed at room temperature for 2 hours. Blank samples were done omitting the dCoh template. The reaction was quenched by addition of 50 ul TCA 20% (trichloroacetic acid)/NaPPi 20 mM and the plates were put in ice for 5 minutes. Then, the mixtures were filtered onto Unifilter GF/B 96-well plates (PerkinElmer), washed with TCA 2.5%. P 50 ul/well of scintillator solution (Microscint 20, PerkinElmer) were added and the plates were counted in a scintillator counter.
The percentage of inhibition was calculated according to the following equation: % Inhibition=[1−(cpm in test reaction−cpm in blank)/(cpm in control reaction−cpm in blank)]×100.
Representative compounds were tested in the HCV NS5B polymerase assay and results are reported as IC50 activity ranges in Table B

Structure (SMILES) | IC50
C[C@@]1(O)[C@H](O)[C@@H](COP(=O)(O)OP(=O)(O)OP(=O)(O)O)O[C@H]1n1cc2c3c(ncnc31)NCc1sccc1-2 [Compound 7, 2-[5-O-(hydroxy{[hydroxy(phosphonooxy)phosphoryl]oxy}phosphoryl)-2-C-methyl-beta-D-ribofuranosyl]-6,7-dihydro-2H-8-thia-2,3,5,6-tetraazabenzo[cd]cyclopenta[h]azulene] | 1 to 30 µM
C[C@@]1(O)[C@H](O)[C@@H](COP(=O)(O)OP(=O)(O)OP(=O)(O)O)O[C@H]1n1cc2c3c(ncnc31)NC(=O)c1ccccc1-2 [Compound 5, 2-[5-O-(hydroxy{[hydroxy(phosphonooxy)phosphoryl]oxy}phosphoryl)-2-C-methyl-beta-D-ribofuranosyl]-2,6-dihydro-7H-2,3,5,6-tetraazadibenzo[cd,h]azulen-7-one] | < 1 µM
C[C@@]1(O)[C@H](O)[C@@H](COP(=O)(O)OP(=O)(O)OP(=O)(O)O)O[C@H]1n1cc2c3c(ncnc31)NCc1ccccc1-2 [Compound 6, 2-[5-O-(hydroxy{[hydroxy(phosphonooxy)phosphoryl]oxy}phosphoryl)-2-C-methyl-beta-D-ribofuranosyl]-6,7-dihydro-2H-2,3,5,6-tetraazadibenzo[cd,h]azulene] | 1 to 30 µM
C[C@@]1(O)[C@H](O)[C@@H](COP(=O)(O)OP(=O)(O)OP(=O)(O)O)O[C@H]1n1cc2c3c(ncnc31)NC(=O)c1sccc1-2 [Compound 8, 2-[5-O-(hydroxy{[hydroxy(phosphonooxy)phosphoryl]oxy}phosphoryl)-2-C-methyl-beta-D-ribofuranosyl]-2,6-dihydro-7H-8-thia-2,3,5,6-tetraazabenzo[cd]cyclopenta[h]azulen-7-one] | < 1 µM
